#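 Five concentrations, 48 hours, 96-well plates. Here, GI50 denotes the concentration required for 50% inhibition of growth.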 The source made the active and inactive calls. No stated cut-off is given here; in the data, active = GI50 up to about 1.1 µM and inactive = higher.
# Legend:
# Assay in all cases: growth of human tumour cells (NCI), 48 h
# HCC 2998 = system: HCC 2998
# ACHN = system: ACHN
# SNB-19 = system: SNB-19
# CCRF-CEM = system: CCRF-CEM
# SNB-75 = system: SNB-75
# U-251 = system: U-251
# MDA-N = system: MDA-N
# SN12C = system: SN12C
# OVCAR-3 = system: OVCAR-3
# MDA-MB-231 = system: MDA-MB-231
# SF-539 = system: SF-539
# K562 = system: K562
# COLO 205 = system: COLO 205
# NCI/ADR-RES = system: NCI/ADR-RES
# RPMI-8226 = system: RPMI-8226
# NCI-H522 = system: NCI-H522
# MOLT-4 = system: MOLT-4
# NCI-H460 = system: NCI-H460
# 786-0 = system: 786-0
# HOP-62 = system: HOP-62
# PC-3 = system: PC-3
# OVCAR-4 = system: OVCAR-4
# UACC-257 = system: UACC-257
# SF-268 = system: SF-268
# SK-MEL-28 = system: SK-MEL-28
# SK-OV-3 = system: SK-OV-3
# SF-295 = system: SF-295
# EKVX = system: EKVX
# UO-31 = system: UO-31
# HOP-92 = system: HOP-92
# A498 = system: A498
# Malme-3M = system: Malme-3M
# T47D = system: T47D
# M14 = system: M14
# RXF 393 = system: RXF 393
# TK-10 = system: TK-10
# HT-29 = system: HT-29
# SK-MEL-5 = system: SK-MEL-5
# BT-549 = system: BT-549
# DU-145 = system: DU-145
# HCT-15 = system: HCT-15
# MCF7 = system: MCF7
# MDA-MB-435 = system: MDA-MB-435
# SK-MEL-2 = system: SK-MEL-2
# IGROV-1 = system: IGROV-1
# A549 = system: A549
# NCI-H226 = system: NCI-H226
# NCI-H23 = system: NCI-H23
# Hs-578T = system: Hs-578T
# KM12 = system: KM12
# UACC-62 = system: UACC-62
# OVCAR-5 = system: OVCAR-5
# HL-60 = system: HL-60
# HCT-116 = system: HCT-116
# SW-620 = system: SW-620
# OVCAR-8 = system: OVCAR-8
# CAKI-1 = system: CAKI-1
# LOX IMVI = system: LOX IMVI
compound,measurement,setting,value
O=S1(=O)OCc2ccccc21,GI50,HCC 2998,> 100 µM (inactive)
same,GI50,ACHN,61.5 µM (inactive)
same,GI50,SNB-19,> 100 µM (inactive)
same,GI50,CCRF-CEM,> 100 µM (inactive)
same,GI50,SNB-75,42.8 µM (inactive)
same,GI50,U-251,> 100 µM (inactive)
same,GI50,MDA-N,> 100 µM (inactive)
same,GI50,SN12C,> 100 µM (inactive)
same,GI50,OVCAR-3,32.5 µM (inactive)
same,GI50,MDA-MB-231,20.8 µM (inactive)
same,GI50,SF-539,25.2 µM (inactive)
same,GI50,K562,> 100 µM (inactive)
same,GI50,COLO 205,> 100 µM (inactive)
same,GI50,NCI/ADR-RES,> 100 µM (inactive)
same,GI50,RPMI-8226,61.1 µM (inactive)
same,GI50,NCI-H522,79.8 µM (inactive)
same,GI50,MOLT-4,15.7 µM (inactive)
same,GI50,NCI-H460,34.4 µM (inactive)
same,GI50,786-0,60.1 µM (inactive)
same,GI50,HOP-62,10.2 µM (inactive)
same,GI50,PC-3,> 100 µM (inactive)
same,GI50,OVCAR-4,51.1 µM (inactive)
same,GI50,UACC-257,> 100 µM (inactive)
same,GI50,SF-268,> 100 µM (inactive)
same,GI50,SK-MEL-28,> 100 µM (inactive)
same,GI50,SK-OV-3,> 100 µM (inactive)
same,GI50,SF-295,> 100 µM (inactive)
same,GI50,EKVX,> 100 µM (inactive)
same,GI50,UO-31,> 100 µM (inactive)
same,GI50,HOP-92,> 100 µM (inactive)
same,GI50,A498,37.5 µM (inactive)
same,GI50,Malme-3M,> 100 µM (inactive)
same,GI50,T47D,> 100 µM (inactive)
same,GI50,M14,> 100 µM (inactive)
same,GI50,RXF 393,> 100 µM (inactive)
same,GI50,TK-10,> 100 µM (inactive)
same,GI50,HT-29,> 100 µM (inactive)
same,GI50,SK-MEL-5,> 100 µM (inactive)
same,GI50,BT-549,> 100 µM (inactive)
same,GI50,DU-145,> 100 µM (inactive)
same,GI50,HCT-15,59.3 µM
same,GI50,MCF7,> 100 µM (inactive)
same,GI50,MDA-MB-435,58.1 µM (inactive)
same,GI50,SK-MEL-2,> 100 µM (inactive)
same,GI50,IGROV-1,> 100 µM (inactive)
same,GI50,A549,> 100 µM (inactive)
same,GI50,NCI-H226,97.5 µM (inactive)
same,GI50,NCI-H23,> 100 µM (inactive)
same,GI50,Hs-578T,> 100 µM (inactive)
same,GI50,KM12,> 100 µM (inactive)
same,GI50,UACC-62,80.2 µM (inactive)
same,GI50,OVCAR-5,> 100 µM (inactive)
same,GI50,HL-60,59.3 µM (inactive)
same,GI50,HCT-116,37.3 µM (inactive)
same,GI50,SW-620,85.7 µM (inactive)
same,GI50,OVCAR-8,> 100 µM (inactive)
O=C1c2c(O)cccc2C(C2OC(CO)C(O)C(O)C2O)c2cc(CO)cc(O)c21 (stereo not drawn),GI50,HCC 2998,> 100 µM (inactive)
same,GI50,ACHN,> 100 µM (inactive)
same,GI50,SNB-19,> 100 µM (inactive)
same,GI50,CCRF-CEM,> 100 µM (inactive)
same,GI50,SNB-75,> 100 µM (inactive)
same,GI50,U-251,> 100 µM (inactive)
same,GI50,MDA-N,> 100 µM (inactive)
same,GI50,SN12C,> 100 µM (inactive)
same,GI50,MDA-MB-231,> 100 µM (inactive)
same,GI50,SF-539,> 100 µM (inactive)
same,GI50,K562,> 100 µM (inactive)
same,GI50,COLO 205,> 100 µM (inactive)
same,GI50,NCI/ADR-RES,> 100 µM (inactive)
same,GI50,RPMI-8226,> 100 µM (inactive)
same,GI50,NCI-H522,> 100 µM (inactive)
same,GI50,MOLT-4,> 100 µM (inactive)
same,GI50,NCI-H460,> 100 µM (inactive)
same,GI50,786-0,> 100 µM (inactive)
same,GI50,HOP-62,> 100 µM (inactive)
same,GI50,PC-3,> 100 µM (inactive)
same,GI50,OVCAR-4,> 100 µM (inactive)
same,GI50,UACC-257,> 100 µM (inactive)
same,GI50,SF-268,> 100 µM (inactive)
same,GI50,SK-MEL-28,> 100 µM (inactive)
same,GI50,CAKI-1,> 100 µM (inactive)
same,GI50,SK-OV-3,> 100 µM (inactive)
same,GI50,SF-295,> 100 µM (inactive)
same,GI50,LOX IMVI,> 100 µM (inactive)
same,GI50,EKVX,> 100 µM (inactive)
same,GI50,UO-31,> 100 µM (inactive)
same,GI50,HOP-92,> 100 µM (inactive)
same,GI50,A498,> 100 µM (inactive)
same,GI50,Malme-3M,> 100 µM (inactive)
same,GI50,T47D,> 100 µM (inactive)
same,GI50,M14,> 100 µM (inactive)
same,GI50,RXF 393,> 100 µM (inactive)
same,GI50,TK-10,> 100 µM (inactive)
same,GI50,HT-29,> 100 µM (inactive)
same,GI50,SK-MEL-5,> 100 µM (inactive)
same,GI50,BT-549,> 100 µM (inactive)
same,GI50,DU-145,> 100 µM (inactive)
same,GI50,HCT-15,> 100 µM
same,GI50,MCF7,> 100 µM (inactive)
same,GI50,MDA-MB-435,> 100 µM (inactive)
same,GI50,SK-MEL-2,> 100 µM (inactive)
same,GI50,IGROV-1,> 100 µM (inactive)
same,GI50,A549,> 100 µM (inactive)
same,GI50,NCI-H226,> 100 µM (inactive)
same,GI50,NCI-H23,> 100 µM (inactive)
same,GI50,Hs-578T,> 100 µM (inactive)
same,GI50,KM12,> 100 µM (inactive)
same,GI50,UACC-62,> 100 µM (inactive)
same,GI50,OVCAR-5,> 100 µM (inactive)
same,GI50,HL-60,> 100 µM (inactive)
same,GI50,HCT-116,> 100 µM (inactive)
same,GI50,SW-620,> 100 µM (inactive)
same,GI50,OVCAR-8,> 100 µM (inactive)
